Data taken from PubChem BioAssay AID1963845 (Molecular Pharmacology Branch, DTP, NCI, 2024).

System: 429239-143-T-J1-PDC complex spheroid viability
Assay: Anticancer human tumor 429239-143-T-J1-PDC patient-derived small cell lung carcinoma cell line growth inhibition [POLQ]
Conditions: for IC50: curve of first compound; for viability, T/C: stronger effect = lower value
Method in brief: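 Complex spheroid viability model combining PDC tumour cells with endothelial (HUVEC) and MSC stromal cells. Novobiocin, ART-558 or RP6685 were tested singly and in combination with standard and investigational anticancer drugs. Each was titrated in half-log steps from near clinical Cmax, or from 10 microM where Cmax was unknown.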

[1] = second compound 0.0316 µM, first compound 0.0316 µM
[2] = second compound 0.0316 µM, first compound 0.1 µM
[3] = second compound 0.0316 µM, first compound 0.316 µM
[4] = second compound 0.0316 µM, first compound 1 µM
[5] = second compound 0.0316 µM, first compound 3.16 µM
[6] = second compound 0.0316 µM, first compound 10 µM
[7] = second compound 0.1 µM, first compound 0.0316 µM
[8] = second compound 0.1 µM, first compound 0.1 µM
[9] = second compound 0.1 µM, first compound 0.316 µM
[10] = second compound 0.1 µM, first compound 1 µM
[11] = second compound 0.1 µM, first compound 3.16 µM
[12] = second compound 0.1 µM, first compound 10 µM
[13] = second compound 0.316 µM, first compound 0.0316 µM
[14] = second compound 0.316 µM, first compound 0.1 µM
[15] = second compound 0.316 µM, first compound 0.316 µM
[16] = second compound 0.316 µM, first compound 1 µM
[17] = second compound 0.316 µM, first compound 3.16 µM
[18] = second compound 0.316 µM, first compound 10 µM
[19] = second compound 1 µM, first compound 0.0316 µM
[20] = second compound 1 µM, first compound 0.1 µM
[21] = second compound 1 µM, first compound 0.316 µM
[22] = second compound 1 µM, first compound 1 µM
[23] = second compound 1 µM, first compound 3.16 µM
[24] = second compound 1 µM, first compound 10 µM
[25] = second compound 3.16 µM, first compound 0.0316 µM
[26] = second compound 3.16 µM, first compound 0.1 µM
[27] = second compound 3.16 µM, first compound 0.316 µM
[28] = second compound 3.16 µM, first compound 1 µM
[29] = second compound 3.16 µM, first compound 3.16 µM
[30] = second compound 3.16 µM, first compound 10 µM
[31] = second compound 10 µM, first compound 0.0316 µM
[32] = second compound 10 µM, first compound 0.1 µM
[33] = second compound 10 µM, first compound 0.316 µM
[34] = second compound 10 µM, first compound 1 µM
[35] = second compound 10 µM, first compound 3.16 µM
[36] = second compound 10 µM, first compound 10 µM
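Note: luminescence signal used as surrogate measure of viable cells; spheroids exposed to compounds for seven days before readout.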
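Throughout, for viability, T/C: 100% = DMSO vehicle control viability as luminescence relative to vehicle.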

**Q.** For `CC1COCCN1c1cc(C2(O)CC3CCC(C2)O3)c2cnn(-c3ccn[nH]3)c2n1` (stereo unspecified) + Cc1cccc(N(C)C(=O)C2C(O)CCN2c2nc(C)cc(C(F)(F)F)c2C#N)c1, which IC50 (second compound 0.0316 µM) is on record?
**A.** 0.0672 µM

**Q.** And the IC50 (second compound 0.1 µM)?
**A.** 0.0668 µM

**Q.** And the IC50 (second compound 0.316 µM)?
**A.** 0.0617 µM

**Q.** What about the IC50 (second compound 1 µM) of the same compound?
**A.** 0.071 µM

**Q.** And the IC50 (second compound 3.16 µM)?
**A.** 0.0478 µM

**Q.** What about the IC50 (second compound 10 µM) of the same compound?
**A.** 0.063 µM

**Q.** What about the viability, T/C [1] of the same compound?
**A.** 76.8%

**Q.** What about the viability, T/C [2] of the same compound?
**A.** 35.8%

**Q.** What about the viability, T/C [3] of the same compound?
**A.** 17.6%

**Q.** And the viability, T/C [4]?
**A.** 10.3%

**Q.** What about the viability, T/C [5] of the same compound?
**A.** 7.41%

**Q.** And the viability, T/C [6]?
**A.** 5.4%

**Q.** And the viability, T/C [7]?
**A.** 69.6%

**Q.** What about the viability, T/C [8] of the same compound?
**A.** 39.6%

**Q.** What about the viability, T/C [9] of the same compound?
**A.** 19.3%

**Q.** What about the viability, T/C [10] of the same compound?
**A.** 11.8%

**Q.** What about the viability, T/C [11] of the same compound?
**A.** 7.54%

**Q.** What about the viability, T/C [12] of the same compound?
**A.** 5.93%

**Q.** And the viability, T/C [13]?
**A.** 62.1%

**Q.** And the viability, T/C [14]?
**A.** 41.3%

**Q.** And the viability, T/C [15]?
**A.** 16.2%

**Q.** And the viability, T/C [16]?
**A.** 9.23%

**Q.** And the viability, T/C [17]?
**A.** 9.02%

**Q.** And the viability, T/C [18]?
**A.** 5.86%

**Q.** What about the viability, T/C [19] of the same compound?
**A.** 73.8%

**Q.** And the viability, T/C [20]?
**A.** 40%

**Q.** What about the viability, T/C [21] of the same compound?
**A.** 17.7%

**Q.** What about the viability, T/C [22] of the same compound?
**A.** 9.58%

**Q.** And the viability, T/C [23]?
**A.** 8.48%

**Q.** And the viability, T/C [24]?
**A.** 5.82%

**Q.** And the viability, T/C [25]?
**A.** 60.1%

**Q.** What about the viability, T/C [26] of the same compound?
**A.** 31.8%

**Q.** What about the viability, T/C [27] of the same compound?
**A.** 17.9%

**Q.** What about the viability, T/C [28] of the same compound?
**A.** 10.3%

**Q.** And the viability, T/C [29]?
**A.** 8.26%

**Q.** What about the viability, T/C [30] of the same compound?
**A.** 6.08%

**Q.** And the viability, T/C [31]?
**A.** 63%

**Q.** And the viability, T/C [32]?
**A.** 41.5%

**Q.** What about the viability, T/C [33] of the same compound?
**A.** 18.5%

**Q.** And the viability, T/C [34]?
**A.** 10.8%

**Q.** And the viability, T/C [35]?
**A.** 9.19%

**Q.** What about the viability, T/C [36] of the same compound?
**A.** 5.28%

**Q.** Which results are given for `CCc1cc2c(N3CCc4c(cc(Cn5ccnc5)cc4-c4cn(C)nc4C(F)(F)F)C3=O)cc(C)nc2c(OC)n1` + Cc1cccc(N(C)C(=O)C2C(O)CCN2c2nc(C)cc(C(F)(F)F)c2C#N)c1?
**A.** IC50 (second compound 0.0316 µM): > 10 µM; IC50 (second compound 0.1 µM): > 10 µM; IC50 (second compound 0.316 µM): 8.03 µM; IC50 (second compound 1 µM): 8.37 µM; IC50 (second compound 3.16 µM): > 10 µM; IC50 (second compound 10 µM): 4.71 µM; viability, T/C [1]: 110%; viability, T/C [2]: 97.7%; viability, T/C [3]: 95%; viability, T/C [4]: 85.6%; viability, T/C [5]: 72.7%; viability, T/C [6]: 48.5%; viability, T/C [7]: 104%; viability, T/C [8]: 104%; viability, T/C [9]: 87.6%; viability, T/C [10]: 79%; viability, T/C [11]: 74.5%; viability, T/C [12]: 49.8%; viability, T/C [13]: 104%; viability, T/C [14]: 99.6%; viability, T/C [15]: 92.3%; viability, T/C [16]: 78.2%; viability, T/C [17]: 78.8%; viability, T/C [18]: 42.5%; viability, T/C [19]: 108%; viability, T/C [20]: 96.1%; viability, T/C [21]: 91.8%; viability, T/C [22]: 85%; viability, T/C [23]: 74.3%; viability, T/C [24]: 44.1%; viability, T/C [25]: 105%; viability, T/C [26]: 101%; viability, T/C [27]: 91.6%; viability, T/C [28]: 90.6%; viability, T/C [29]: 77.5%; viability, T/C [30]: 54.6%; viability, T/C [31]: 108%; viability, T/C [32]: 98.9%; viability, T/C [33]: 85.3%; viability, T/C [34]: 82.5%; viability, T/C [35]: 63.3%; viability, T/C [36]: 28.6%

**Q.** What does the source list for `O=C(Nc1ccc(O)c(NS(=O)(=O)c2ccc(F)cc2)c1)c1ccc(-c2ccccc2)cc1` + Cc1cccc(N(C)C(=O)C2C(O)CCN2c2nc(C)cc(C(F)(F)F)c2C#N)c1?
**A.** IC50 (second compound 0.0316 µM): > 10 µM; IC50 (second compound 0.1 µM): > 10 µM; IC50 (second compound 0.316 µM): > 10 µM; IC50 (second compound 1 µM): > 10 µM; IC50 (second compound 3.16 µM): > 10 µM; IC50 (second compound 10 µM): > 10 µM; viability, T/C [1]: 93.8%; viability, T/C [2]: 104%; viability, T/C [3]: 91.9%; viability, T/C [4]: 121%; viability, T/C [5]: 100%; viability, T/C [6]: 105%; viability, T/C [7]: 100%; viability, T/C [8]: 112%; viability, T/C [9]: 111%; viability, T/C [10]: 99.8%; viability, T/C [11]: 107%; viability, T/C [12]: 102%; viability, T/C [13]: 100%; viability, T/C [14]: 110%; viability, T/C [15]: 102%; viability, T/C [16]: 106%; viability, T/C [17]: 118%; viability, T/C [18]: 107%; viability, T/C [19]: 103%; viability, T/C [20]: 99.5%; viability, T/C [21]: 94.1%; viability, T/C [22]: 105%; viability, T/C [23]: 112%; viability, T/C [24]: 97%; viability, T/C [25]: 106%; viability, T/C [26]: 106%; viability, T/C [27]: 108%; viability, T/C [28]: 103%; viability, T/C [29]: 105%; viability, T/C [30]: 107%; viability, T/C [31]: 111%; viability, T/C [32]: 98.7%; viability, T/C [33]: 107%; viability, T/C [34]: 105%; viability, T/C [35]: 109%; viability, T/C [36]: 104%
